Data from patent US20240299438A1, “METHOD FOR DIAGNOSIS AND TREATMENT OF AUTISM SPECTRUM DISORDER ON BASIS OF ACTIVITY REGULATION MECHANISM OF DORMANT NEURAL STEM CELL” (DONGGUK UNIVERSITY INDUSTRY-ACADEMIC COOPERATION FOUNDATION, priority 2021, published 2024).

How the values were obtained:
[1] = system: quiescent neural stem cells in SVZ and DG of Shank3-deficient mice; experiment: Immunostaining quantification of qNSCs, BrdU+ NSCs and DCX+ cells after drug injection; assay type: in vivo, mouse; settings: for number of GFAP+,Sox2+,Dlx2− qNSCs / number of GFAP+,Sox2+,Id2+ qNSCs: 2 weeks after administration, OICR-9429 3 mg/kg, romidepsin 0.25 mg/kg, clozapine 5 mg/kg, once/day, 3 days
Description: (§1) FIG. 5 (A) Immunostaining results of quiescent neural stem cells in the SVZ of control and Shank3 KO mice injected with saline, OICR-9429 (3 mg/kg, once/day, 3 days), romidepsin (0.25 mg/kg, once/day, 3 days), and clozapine (5 mg/kg, once/day, 3 days). The yellow arrows indicate GFAP+Sox2+Dlx2− qNSCs. Scale bar=20 μm. (B) Immunostaining results of quiescent neural stem cells in the DG of control and Shank3 KO mice injected with saline, OICR-9429 (3 mg/kg, once/day, 3 days), romidepsin (0.25 mg/kg, once/day, 3 days), and clozapine (5 mg/kg, once/day, 3 days). The yellow arrows indicate GFAP+Sox2+NeuN− qNSCs. Scale bar=20 μm. (C-E) Quantification results of FAP+Sox2+Id2+ (C) and GFAP+Sox2+Dlx2− (D) qNSCs in the SVZ and GFAP+Sox2+NeuN− (E) qNSCs in the DG. (F) Quantification results of BrdU+ NSCs in the SVZ injected with saline, OICR-9429, romidepsin, and clozapine. Control and Shank3 KO mice injected with each drug were injected intraperitoneally with a daily dose of BrdU (100 mg/kg/day). (G) Quantification results of DCX+ NPCs in the DG of control and Shank3 KO mice injected with each drug. (H) Immunofluorescence analysis of GFAP+,Sox2+,BrdU+ aNSCs in the SVZ of control and Shank3 KO mice injected with each drug. Scale bar=100 μm. (I) Quantification results of BrdU+ cells in the SVZ of saline- or OICR-9429-treated control and Shank3 mice at different time points after TMZ injection. (J) Analysis of protein expression levels of synaptic proteins and glutamate receptor subunits from control or Shank3 KO mice injected with saline or OICR-9429. (K) Results of representative heat maps showing the time spent in 3 chambers to assess the social interactions of control and Shank3 KO mice treated with saline, OICR-9429, romidepsin, clozapine, and VPA. (L-O) Social preference index percentages (Soc vs. NS ratio) in Shank3 KO mice injected with OICR-9429 (L), romidepsin (M), clozapine (N), and VPA (O) for 28 days.
To provide a drug-based therapeutic strategy for autism, Shank3-deficient mice were treated with OICR-9429, which is an antagonist inhibiting H3K4 trimethylation by KMT2A, and the effect was investigated. […] Similarly, OICR-9429 injection reduced the number of GFAP+,Sox2+,NeuN− qNSCs during hippocampal neurogenesis in Shank3-deficient mice (FIGS. 5B and 5E). […] Finally, as a result of treatment with OICR-9429, the number of DCX-positive neuroblasts increased in the brains of Shank3-deficient mice (FIG. 5G).

[2] = system: Shank3-deficient mice; experiment: Social interaction behavioral test (3 chambers) after drug injection; assay type: in vivo, mouse; settings: for time participating in social stimuli: 3-chamber test; for social preference index (persistence of effect): followed for 28 days after injection
Description: as §1
In addition, to investigate the therapeutic effect of OICR-9429, a social interaction behavioral test was performed on Shank3-deficient mice injected with various neuropsychiatric drugs.

[3] = system: qNSC activity in SVZ of Shank3-deficient mice; experiment: Recovery of BrdU-positive cells after temozolomide (TMZ) injection; assay type: in vivo, mouse; settings: after 7 days of TMZ injection, relative to control mice
Description: as §1, with “(J) Analysis of protein expression levels of synaptic proteins and glutamate receptor subunits from control or Shank3 KO mice injected with saline or OICR-9429. (K) Results of representative heat maps showing the time spent in 3 chambers to assess the social interactions of control and Shank3 KO mice treated with saline, OICR-9429, romidepsin, clozapine, and VPA. (L-O) Social preference index percentages (Soc vs. NS ratio) in Shank3 KO mice injected with OICR-9429 (L), romidepsin (M), clozapine (N), and VPA (O) for 28 days.” left out

[4] = system: Homer1, SAPAP3, GluR1, GluR2, NR2A, NR2B; experiment: Protein expression levels of synaptic proteins and glutamate receptor subunits in mice; assay type: in vivo, mouse; settings: Shank3-deficient mice
Description: as §1, with “(J) Analysis of protein expression levels of synaptic proteins and glutamate receptor subunits from control or Shank3 KO mice injected with saline or OICR-9429. (K) Results of representative heat maps showing the time spent in 3 chambers to assess the social interactions of control and Shank3 KO mice treated with saline, OICR-9429, romidepsin, clozapine, and VPA. (L-O) Social preference index percentages (Soc vs. NS ratio) in Shank3 KO mice injected with OICR-9429 (L), romidepsin (M), clozapine (N), and VPA (O) for 28 days.” left out

[5] = system: SHANK3-deficient human radial glia cells; experiment: Immunofluorescence of SHANK3-deficient human iPSC-derived neural stem (radial glia) cells; assay type: cell-based; settings: five days after treatment
Source text: FIG. 6 (A) Immunostaining results of GFAP+,SOX2+,ID2+ and GFAP+,SOX2+,NESTIN+ quiescent neural stem cells (radical glia cell, RGCs) from control or SHANK3-deficient iPSCs. White arrows indicate human RGCs. Scale bar=20 μm. (B) Quantification results of GFAP+,SOX2+,I D2+ RGCs with radial morphology. (C) Quantification results of GFAP+,SOX2+,NESTIN+ RGCs with radial morphology. (D) Immunostaining of GFAP+,SOX2+,EGFR+ aNSC and K167+ proliferating cells. Scale bar=20 μm. (E) Quantification results of GFAP+,SOX2+,EGFR+ aNSCs from control or SHANK3-deficient RGCs. (F) Quantification results of K167+ proliferating cells from control or SHANK3-deficient RGCs. (G) Immunofluorescence analysis of GFAP+,SOX2+,NESTIN+ RGCs from control or SHANK3-deficient NSCs treated with KMT2A-shRNA. The white arrow indicates cells with radial morphology. Scale bar=20 μm. (H) Quantification results of the number of GFAP+,SOX2+,NESTIN+ RGCs with radial morphology and GFAP+,SOX2+,NESTIN+ RGCs with nonradial morphology treated with KMT2A-shRNA. […]
The molecular mechanisms underlying the autism phenotypes associated with SHANK3 deficiency in human iPSC-derived neural differentiation were investigated. […] Additionally, it was analyzed whether or not SHANK3-deficient human radial glia cells are pharmacologically treated by OICR-9429.

[6] = system: HOMER1, SAPAP3, GluR1, NR2A; experiment: Western blot of synaptic proteins and glutamate receptor subunits in SHANK3-deficient human cultures; assay type: cell-based

Compound	number of GFAP+,Sox2+,Dlx2− qNSCs ([1]; SVZ, Shank3-deficient mice)	number of GFAP+,Sox2+,Id2+ qNSCs ([1]; SVZ, Shank3-deficient mice)	time participating in social stimuli [2]	number of rapidly dividing cells labeled with BrdU ([1]; SVZ, Shank3-deficient mice)	number of DCX-positive neuroblasts ([1]; brains (DG) of Shank3-deficient mice)	number of GFAP+,Sox2+,NeuN− qNSCs ([1]; hippocampal neurogenesis (DG), Shank3-deficient mice)	BrdU-positive cells after TMZ injection [3]	expression of synaptic proteins Homer1 and SAPAP3 and glutamate receptor subunits GluR1, GluR2, NR2A, and NR2B [4]	social preference index (persistence of effect) [2]	proportion of GFAP+,SOX2+,NESTIN+ radial glia cells with non-radial morphology ([5]; SHANK3-deficient neural stem cells)	proportion of GFAP+,SOX2+,NESTIN+ radial glia cells with radial morphology ([5]; SHANK3-deficient radial glia cells)	expression levels of synaptic proteins HOMER1 and SAPAP3 and glutamate receptor subunits GluR1 and NR2A [6]
CN1CCN(C2=Nc3cc(Cl)ccc3Nc3ccccc32)CC1 [clozapine]	no effect	no effect	no significant effect									
CN1CCN(c2ccc(-c3cccc(CN4CCOCC4)c3)cc2NC(=O)c2c[nH]c(=O)cc2C(F)(F)F)CC1 [OICR-9429]	significantly decreased	significantly decreased	significantly more time	greatly increased	increased	reduced	significantly recovered	significantly restored	gradually improved up to 3 weeks after injection	significant decrease	decreased	greatly increased
C/C=C1\NC(=O)[C@H]2CSSCC/C=C/[C@H](CC(=O)N[C@H](C(C)C)C(=O)N2)OC(=O)[C@H](C(C)C)NC1=O [romidepsin]	no effect	no effect	no significant effect									
CCCC(CCC)C(=O)O [VPA]			no significant effect						did not improve			
